# Laboratory results published in patent publication US12358932B2, “Chemical compounds” (BORAH, INC., priority 2019, dated 2025).
# System: JAK
# Test: Biochemical Kinase Assay Protocol (JAK)
# Conditions: compound list; + = noted target activity, number of * = preference
# Method: Biochemical Kinase Assay Protocol (JAK, TrkA, Syk, Tyk2)
# Reagent: Base Reaction buffer; 20 mM Hepes (pH 7.5), 10 mM MgCl2, 1 mM EGTA, 0.02% Brij™ 35, 0.02 mg/ml BSA, 0.1 mM Na3VO4, 2 mM DTT, 1% DMSO, where required cofactors are added individually to each kinase reaction.
# • 1. Prepare indicated substrate in freshly prepared Base Reaction Buffer • 2. Deliver any required cofactors to the substrate solution above • 3. Deliver indicated kinase (JAK or TrkA) into the substrate solution and gently mix • 4. Deliver compounds in DMSO into the kinase reaction mixture by Acoustic technology (Echo550; nanoliter range), incubate for 20 minutes at room temperature • 5. Deliver 33P-ATP into the reaction mixture to initiate the reaction. • 6. Incubate kinase reaction for 2 hours at room temperature • 7. Reactions are spotted onto P81 ion exchange paper • 8. Detect kinase activity by filter-binding method. PDE4B Phosphodiesterase Assay
row,Activity Note: JAK,Structure (SMILES)
1,JAK+***,"Cc1cnc(Nc2cc(Cl)c3c(c2)C(C)(C)OB3O)nc1Nc1ccccc1 [7-chloro-3,3-dimethyl-5-((5-methyl-4-(phenylamino)pyrimidin-2-yl)amino)benzo[c][1,2]oxaborol-1(3H)-ol]"
2,JAK+*,"Cc1cnc(Nc2ccc3c(c2)B(O)OC3)nc1N[C@H]1CC[C@H](CO)CC1 [6-((4-(((1r,4r)-4-(hydroxymethyl)cyclohexyl)amino)-5-methylpyrimidin-2-yl)amino)benzo[c][1,2]oxaborol-1(3H)-ol]"
3,JAK+***,"Cc1cnc(Nc2cc(C)c3c(c2)C(C)(C)OB3O)nc1Nc1ccccc1 [3,3,7-trimethyl-5-((5-methyl-4-(phenylamino)pyrimidin-2-yl)amino)benzo[c][1,2]oxaborol-1(3H)-ol]"
4,JAK+***,"Cc1cnc(Nc2ccc3c(c2)C(C)OB3O)nc1Nc1ccccc1 (stereo not shown) [3-methyl-5-((5-methyl-4-(phenylamino)pyrimidin-2-yl)amino)benzo[c][1,2]oxaborol-1(3H)-ol]"
5,JAK+***,"Cc1cnc(Nc2ccc3c(c2)CCOB3O)nc1NC1CCCC1 [6-((4-(cyclopentylamino)-5-methylpyrimidin-2-yl)amino)-3,4-dihydro-1H-benzo[c][1,2]oxaborinin-1-ol]"
6,JAK+*,"Cc1cnc(Nc2ccc3c(c2C)B(O)OC3)nc1Nc1cccc(S(C)(=O)=O)c1 [7-methyl-6-((5-methyl-4-((3-(methylsulfonyl)phenyl)amino)pyrimidin-2-yl)amino)benzo[c][1,2]oxaborol-1(3H)-ol]"
7,JAK+***,"CCc1cc(Nc2ncc(Cl)c(NC3CCCC3)n2)cc2c1B(O)OC2 [5-((5-chloro-4-(cyclopentylamino)pyrimidin-2-yl)amino)-7-ethylbenzo[c][1,2]oxaborol-1(3H)-ol]"
8,JAK+***,"CC1(C)OB(O)c2ccc(Nc3ncc(Cl)c(NC4CCCC4)n3)cc21 [5-((5-chloro-4-(cyclopentylamino)pyrimidin-2-yl)amino)-3,3-dimethylbenzo[c][1,2]oxaborol-1(3H)-ol]"
9,JAK+***,"CCc1cc(Nc2ncc(C)c(NC(CC)CC)n2)cc2c1B(O)OC2 [7-ethyl-5-((5-methyl-4-(pentan-3-ylamino)pyrimidin-2-yl)amino)benzo[c][1,2]oxaborol-1(3H)-ol]"
10,JAK+*,"Cc1cnc(Nc2ccc3c(c2)B(O)OC3)nc1NC1CCN(C)CC1 [6-((5-methyl-4-((1-methylpiperidin-4-yl)amino)pyrimidin-2-yl)amino)benzo[c][1,2]oxaborol-1(3H)-ol]"
11,JAK+*,"Cc1cnc(Nc2cc(C)c3c(c2)CCOB3O)nc1NC1CCCC1 [6-((4-(cyclopentylamino)-5-methylpyrimidin-2-yl)amino)-8-methyl-3,4-dihydro-1H-benzo[c][1,2]oxaborinin-1-ol]"
12,JAK+***,"CC1(C)OB(O)c2c(Cl)cc(Nc3ncc(Cl)c(NC4CCCC4)n3)cc21 [7-chloro-5-((5-chloro-4-(cyclopentylamino)pyrimidin-2-yl)amino)-3,3-dimethylbenzo[c][1,2]oxaborol-1(3H)-ol]"
13,JAK+*,"Cc1cnc(Nc2ccc3c(c2)B(O)OC3)nc1Nc1cccc(S(C)(=O)=O)c1 [6-((5-methyl-4-((3-(methylsulfonyl)phenyl)amino)pyrimidin-2-yl)amino)benzo[c][1,2]oxaborol-1(3H)-ol]"
14,JAK+*,"CCCNc1nc(Nc2ccc3c(c2)B(O)OC3)ncc1I [6-((5-iodo-4-(propylamino)pyrimidin-2-yl)amino)benzo[c][1,2]oxaborol-1(3H)-ol]"

row,Structure (SMILES),Activity Note: JAK
1,"Cc1cnc(Nc2ccc3c(c2)C(C)(C)OB3O)nc1NC1CCCC1 [5-((4-(cyclopentylamino)-5-methylpyrimidin-2-yl)amino)-3,3-dimethylbenzo[c][1,2]oxaborol-1(3H)-ol]",JAK+***
2,"CCC(CC)Nc1nc(Nc2cc(Cl)c3c(c2)COB3O)ncc1C [7-chloro-5-((5-methyl-4-(pentan-3-ylamino)pyrimidin-2-yl)amino)benzo[c][1,2]oxaborol-1(3H)-ol]",JAK+***
